How the values were obtained:
[1] = system: AMO-1; experiment: Six-day cell proliferation assay (CellTiter-Glo); type: cell-based; details: Homo sapiens, AMO1, 144 h; AMO-1 (Plasmacytoma), 6 days; read-out: Average day 6 gIC50
Experimental: (§1) Six-day cell proliferation assay
(§2) Optimal cell seeding density was determined empirically for each cell lines by examining the gro wth of a wide ran ge o f seedin g densities in a 3 84-well formatto identify conditio ns that permitted maximal and continued proliferation for 6 days. Cells were plat ed in duplicate plates 24 hours before treatment with a 20- point two-fold dilution series of compound or 0.15%
(§3) DMSO. Plates were incubated for 6 da ys at 37°C in 5% CO2. Cells were th en l ysed with CellTiter-Glo (CTG) (Pr omega) and chemiluminescent sign al was detected with an appropriat e microplate reader. In addition, an untreated plate of cells was harvested at the time of compound addition (T0) to quantif y the initial cell densit y. CTG values obtained after 6 days of treatment were expressed as a percent of the T0 value and plotted against compound concentration. […]
(§4) Supplementary Table S 3. […] A p anel […]
(§5) of cell lines was treated with EZM2302fo r 6da ys in a proliferation ass a y. Cell densit y (as assessed b y CellTiter-Gl o) at da y 0 was compared to day 6 to det ermine growth IC 50 values , calculated us i n g a f our parameter dose response equation.
(§6) Cell Type According to Cell Type Category Cell L ine Name gIC50 Average day 6 Standard Replicates
(§7) Supplier Modifier gIC50 (nM) Deviation […]
(§8) Burkitt lymphoma lymphoma NC-37 > 7331 0 2 […]

[2] = system: DB; experiment: Six-day cell proliferation assay (CellTiter-Glo); type: cell-based; details: Homo sapiens, 144 h; DB (GCB DLBCL), 6 days; read-out: Average day 6 gIC50
Experimental: as §1, §2, §3, §4, §5, §6, §7, §8

[3] = system: MOLP-8; experiment: Six-day cell proliferation assay (CellTiter-Glo); type: cell-based; details: Homo sapiens, 144 h; MOLP-8 (MM), 6 days; read-out: Average day 6 gIC50
Experimental: as §1, §2, §3, §4, §5, §6, §7, §8

[4] = system: NCI-H929; experiment: Six-day cell proliferation assay (CellTiter-Glo); type: cell-based; details: Homo sapiens, 144 h; NCI-H929 (MM), 6 days; read-out: Average day 6 gIC50
Experimental: as §1, §2, §3, §4, §5, §6, §7, §8

[5] = system: HuNS1; experiment: Six-day cell proliferation assay (CellTiter-Glo); type: cell-based; details: 144 h; HuNS1 (Transformed B-lymphoblastoid), 6 days; read-out: Average day 6 gIC50
Experimental: as §1, §2, §3, §4, §5, §6, §7, §8

[6] = system: DOHH-2; experiment: Six-day cell proliferation assay (CellTiter-Glo); type: cell-based; details: Homo sapiens, 144 h; DOHH-2 (tFL), 6 days; read-out: Average day 6 gIC50
Experimental: as §1, §2, §3, §4, §5, §6, §7, §8

[7] = system: HT; experiment: Six-day cell proliferation assay (CellTiter-Glo); type: cell-based; details: Homo sapiens, 144 h; HT (GCB DLBCL), 6 days; read-out: Average day 6 gIC50
Experimental: as §1, §2, §3, §4, §5, §6, §7, §8

[8] = system: ARH-77; experiment: Six-day cell proliferation assay (CellTiter-Glo); type: cell-based; details: Homo sapiens, 144 h; ARH-77 (EBV+ lymphoblastoid), 6 days; read-out: Average day 6 gIC50
Experimental: as §1, §2, §3, §4, §5, §6, §7, §8

[9] = system: KMS-12BM; experiment: Six-day cell proliferation assay (CellTiter-Glo); type: cell-based; details: Homo sapiens, 144 h; KMS-12BM (MM, Bone marrow), 6 days; read-out: Average day 6 gIC50
Experimental: as §1, §2, §3, §4, §5, §6, §7, §8

[10] = system: JJN3; experiment: Six-day cell proliferation assay (CellTiter-Glo); type: cell-based; details: Homo sapiens, JJN-3, 144 h; JJN3 (Plasma cell leukemia), 6 days; read-out: Average day 6 gIC50
Experimental: as §1, §2, §3, §4, §5, §6, §7, §8

[11] = system: KMS-11; experiment: Six-day cell proliferation assay (CellTiter-Glo); type: cell-based; details: Homo sapiens, 144 h; KMS-11 (Myeloma), 6 days; read-out: Average day 6 gIC50
Experimental: as §1, §2, §3, §4, §5, §6, §7, §8

[12] = system: MOLM-16; experiment: Six-day cell proliferation assay (CellTiter-Glo); type: cell-based; details: MOLM16, 144 h; MOLM-16 (AML), 6 days; read-out: Average day 6 gIC50
Experimental: as §1, §2, §3, §4, §5, §6, §7, §8

[13] = system: L363; experiment: Six-day cell proliferation assay (CellTiter-Glo); type: cell-based; details: Homo sapiens, L-363, 144 h; L363 (Plasma cell leukemia), 6 days; read-out: Average day 6 gIC50
Experimental: as §1, §2, §3, §4, §5, §6, §7, §8

[14] = molecular target: T1, rat recombinant kappa-opioid (KOP) receptor (Rattus norvegicus, UniProt P34975); experiment: kappa-opioid (KOP) receptor binding assay
T1 construct: purchased CEREP, Redmond, WA (ExpresSProfile screen)
T1 sequence (P34975 whole entry): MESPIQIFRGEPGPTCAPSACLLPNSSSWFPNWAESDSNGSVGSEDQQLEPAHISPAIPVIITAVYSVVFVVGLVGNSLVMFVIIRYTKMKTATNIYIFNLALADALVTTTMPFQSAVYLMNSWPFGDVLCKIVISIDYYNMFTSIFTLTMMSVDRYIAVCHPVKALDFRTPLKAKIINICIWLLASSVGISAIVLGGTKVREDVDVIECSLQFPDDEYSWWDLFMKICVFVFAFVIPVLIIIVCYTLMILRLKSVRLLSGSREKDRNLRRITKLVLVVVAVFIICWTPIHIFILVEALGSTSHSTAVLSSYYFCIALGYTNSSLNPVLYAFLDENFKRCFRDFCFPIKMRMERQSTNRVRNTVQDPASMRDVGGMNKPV
Source text: […]. […] […]. […] […].

[15] = molecular target: hERG channel (Homo sapiens, UniProt Q12809); experiment: hERG channel current inhibition; type: biochemical; details: read-out: IC50 against hERG channel current inhibition
hERG channel, sequence (Q12809 whole entry): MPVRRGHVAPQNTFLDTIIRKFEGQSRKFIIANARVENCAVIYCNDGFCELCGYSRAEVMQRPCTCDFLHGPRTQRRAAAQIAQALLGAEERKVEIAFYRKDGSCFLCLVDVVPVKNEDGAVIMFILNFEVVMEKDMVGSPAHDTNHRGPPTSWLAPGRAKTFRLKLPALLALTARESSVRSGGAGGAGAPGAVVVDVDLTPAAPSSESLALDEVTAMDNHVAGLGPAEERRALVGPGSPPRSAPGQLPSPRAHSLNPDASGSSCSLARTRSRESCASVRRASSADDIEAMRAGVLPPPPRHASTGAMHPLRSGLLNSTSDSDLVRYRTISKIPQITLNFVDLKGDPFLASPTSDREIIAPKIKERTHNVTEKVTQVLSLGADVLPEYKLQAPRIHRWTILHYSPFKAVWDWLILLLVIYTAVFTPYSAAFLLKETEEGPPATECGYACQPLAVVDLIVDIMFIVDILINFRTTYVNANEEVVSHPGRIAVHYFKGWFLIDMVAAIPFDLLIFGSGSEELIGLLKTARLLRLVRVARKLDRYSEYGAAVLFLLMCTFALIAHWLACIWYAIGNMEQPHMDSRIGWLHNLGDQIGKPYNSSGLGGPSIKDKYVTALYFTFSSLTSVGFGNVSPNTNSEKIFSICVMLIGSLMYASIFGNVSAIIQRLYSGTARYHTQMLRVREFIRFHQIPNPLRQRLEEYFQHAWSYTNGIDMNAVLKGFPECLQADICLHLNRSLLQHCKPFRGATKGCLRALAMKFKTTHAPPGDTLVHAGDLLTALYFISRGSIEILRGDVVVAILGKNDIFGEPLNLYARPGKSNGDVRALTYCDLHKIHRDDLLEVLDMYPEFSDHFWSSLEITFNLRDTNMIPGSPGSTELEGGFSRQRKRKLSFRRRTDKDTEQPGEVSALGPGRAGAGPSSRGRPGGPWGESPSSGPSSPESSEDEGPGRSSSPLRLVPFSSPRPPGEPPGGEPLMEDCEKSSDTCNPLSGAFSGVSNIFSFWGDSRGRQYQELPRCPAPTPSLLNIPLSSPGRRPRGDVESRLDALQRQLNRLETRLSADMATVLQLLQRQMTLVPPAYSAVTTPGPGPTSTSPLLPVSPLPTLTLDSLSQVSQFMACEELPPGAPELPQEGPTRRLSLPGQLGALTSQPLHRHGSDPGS

[16] = system: MCF7; experiment: Long term proliferation assay (15 days); type: cell-based; details: Homo sapiens, 360 h, read-out: EZM2302 IC50 (absolute, long term proliferation); MCF7, BREAST, day 15
Experimental: (§9) Long term (14–15 day) cell proliferation assays were performed using the method previously described with adjustments to initial seeding densities depending on growth characteristics for each cell line[54],[55]. For 6 day proliferation studies, see Supplementary Methods.
(§10) Supplementary Table S2. Long term proliferation IC50 values of cell lines dosed with EZM2302. A panel of cell lines was treated with EZM2302fo r 15 da ys in a long term proliferation assa y. Abs olute IC 50 values were calculated in GraphPad Pri sm (non -linear regression anal ysis, top of the curves were fixed to 100%) for each line at d ay 15 .

[17] = system: BT20; experiment: Long term proliferation assay (15 days); type: cell-based; details: Homo sapiens, BT-20, 360 h, read-out: EZM2302 IC50 (absolute, long term proliferation); BT20, BREAST, day 15
Experimental: as §9, §10

[18] = system: PC3; experiment: Long term proliferation assay (15 days); type: cell-based; details: Homo sapiens, PC-3, 360 h, read-out: EZM2302 IC50 (absolute, long term proliferation); PC3, PROSTATE, day 15
Experimental: as §9, §10

[19] = system: VCAP; experiment: Long term proliferation assay (15 days); type: cell-based; details: Homo sapiens, 360 h, read-out: EZM2302 IC50 (absolute, long term proliferation), PROSTATE, day 15
Experimental: as §9, §10

[20] = system: LNCAP; experiment: Long term proliferation assay (15 days); type: cell-based; details: Homo sapiens, 360 h, read-out: EZM2302 IC50 (absolute, long term proliferation), PROSTATE, day 15
Experimental: as §9, §10

[21] = system: HCT116; experiment: Long term proliferation assay (15 days); type: cell-based; details: Homo sapiens, HCT-116, 360 h, read-out: EZM2302 IC50 (absolute, long term proliferation); HCT116, LARGE, day 15
Experimental: as §9, §10

[22] = system: HT29; experiment: Long term proliferation assay (15 days); type: cell-based; details: Homo sapiens, HT-29, 360 h, read-out: EZM2302 IC50 (absolute, long term proliferation); HT29, LARGE, day 15
Experimental: as §9, §10

[23] = system: BT474; experiment: Long term proliferation assay (15 days); type: cell-based; details: Homo sapiens, BT-474, 360 h, read-out: EZM2302 IC50 (absolute, long term proliferation); BT474, BREAST, day 15
Experimental: as §9, §10

## CNC[C@@H](O)COc1ccc(Cl)c(-c2nc(-c3c(C)noc3C)c(C)c(N3CC4(CCN(C(=O)OC)CC4)C3)n2)c1 [EZM2302]
[1]
  IC50: > 25.9 µM
[2]
  IC50: > 7.33 µM
[3]
  IC50: 6.62 µM
[4]
  IC50: 0.862 µM
[5]
  IC50: > 19 µM
[6]
  IC50: 0.468 µM
[7]
  IC50: > 7.33 µM
[8]
  IC50: > 4.27 µM
[9]
  IC50: > 15.5 µM
[10]
  IC50: > 13 µM
[11]
  IC50: > 18.2 µM
[12]
  IC50: 6.54 µM
[13]
  IC50: 16.1 µM
[14]
  IC50: 3.3 µM
[14]; 10 μM
  inhibition at 10 µM: 69%
[15]
  IC50: > 100 µM
[16]
  IC50: > 20 µM
[17]
  IC50: > 20 µM
[18]
  IC50: > 20 µM
[19]
  IC50: > 20 µM
[20]
  IC50: 12.2 µM
[21]
  IC50: > 20 µM
[22]
  IC50: > 20 µM
[23]
  IC50: > 20 µM

From paper PMC5740082, “Identification of a CARM1 Inhibitor with Potent In Vitro and In Vivo Activity in Preclinical Models of Multiple Myeloma” (Scientific Reports, 2017)
